In patent publication US12128173B2, “Dry powder drug delivery system and methods” (MannKind Corporation, priority 2012, dated 2024):

Legend:
[1] = Powder flowability: Hausner ratio, compressibility (Carr's) index, angle of repose, critical orifice; assay type: physicochemical
Text: FDKP microparticles either unmodified or containing a drug, for example insulin, constitute highly cohesive powders.

Solubility of FDKP by pH = assay type: physicochemical
[2] = VMGD and container emptying by laser diffraction, DPI 2 vs MEDTONE (Example 6); assay type: physicochemical; conditions: SSA 55, 4 kPa
Description: Typically, the geometric size of the emitted powder includes a volumetric distribution characterized by the median particle size, VMGD.

[3] = In vitro powder emptying and VMGD, DPI 2 vs MTDS (Example 7); assay type: physicochemical; conditions: 4 kPa
Description: In vitro powder performance for these systems was compared for various parameter of inhaler performance. For DPI 2 a single discharge per cartridge was used as compared to two discharges per cartridge in the MEDTONE® system.
Particle sizing by laser diffraction and quantification of emitted mass as described above were used in these experiments. A laser diffraction instrument (Sympatec HELOS) was adapted with a novel pressurized inhaler chamber to facilitate analysis of powder plumes. MTDS cartridges were discharged twice per determination versus once with DPI 2.

[4] = FDKP pharmacokinetics after inhalation, DPI 1 vs MEDTONE (Example 8); assay type: in vivo, healthy volunteers
Text: The MEDTONE® inhaler system was used for comparison. […] Powder used were crystalline powder formulations.
During an inhalation maneuver, the patient was instructed to maintain a nominal pressure differential of 4-6 kPa combined with a short inhalation of 3-4 seconds or a long inhalation of 6-7 seconds. To generate a “hard” inhalation, the subject provided a nominal inhalation time of about 6.5 seconds and a peak pressure of 7 kPa. Conversely, to generate an “easy” inhalation, the subject provided a nominal inhalation time of about 6.5 seconds and a peak pressure of 5 kPa. Coupled with the inhalation monitoring apparatus, gravimetric assessment of the powder mass discharged from the cartridge was performed. This enabled a linkage between inhalation maneuver during dosing, cartridge discharge mass and pharmacokinetic profile determinations for each subject.
The study was an open-label, crossover, 2-part study in healthy volunteers.
Part 2 was carried out as a 2-part, 2-way crossover study for evaluating the effect of flow rate (15 versus 30 LPM) and inhalation time (3 versus 6 seconds). For each parameter tested (i.e., flow rate, and inhalation time), ten subjects were crossed over for each parameter with 20 subjects total for all of the parameters. Pharmacokinetics of FDPK was assessed with each treatment from blood samples taken from the subjects.

[5] = O-series vs U-series inhaler: discharge and particle size of crystalline and amorphous powders (Example 14); assay type: physicochemical; conditions: fill 25 mg, 4 kPa; for X84 avg: in µm (unit assumed)
Description: These experiments were conducted to test various inhaler designs in trying to improve percent dose discharge or increase device emptying to acceptable ranges for certain types of powders used. […] In these experiments, therefore, two types of dry powder inhalers were designed and built. An O-series (FIGS. 49 and 50) dry powder inhaler wherein the inhaler comprises rigid conduits which generate a tumbling, recirculating action of an airflow through the powder container during an inhalation in an O-shape prior to the airflow exiting the container. A second inhaler or U-series was also designed and built for comparison wherein the dry powder inhaler comprised a rigid air conduit through the container substantially U-shaped and configured with a deflector so that in use an airflow entering the container redirects the airflow within the container void or space in a U-shape/semilunar path or downwardly prior to exiting the container. Powders tested were either crystalline or amorphous.
The rigid flow conduits as illustrated in FIGS. 49 and 51 can be adapted to any type of dry powder inhaler for delivering different types of powder compositions. In these experiments, crystalline and amorphous powders were tested with the two types of air flow conduits designed into the same type of inhalers, a single use disposable. […] Inhaler performance was tested and evaluated from measurements using various parameters, such as pressure differential, powder content prior to and after testing of various powders via a simulated single inhalation. The particle size distribution of the discharged powder plume for each inhaler used was also measured as described in Example 7 above.

[6] = FDKP bioavailability versus intravenous bolus of radiolabeled FDKP; conditions: model analysis
[7] = Post prandial glucose excursions during meal challenges; assay type: in vivo, healthy volunteers; conditions: DPI 2 vs MEDTONE, doses not titrated

For `O=C(O)/C=C/C(=O)NCCCCC1NC(=O)C(CCCCNC(=O)/C=C/C(=O)O)NC1=O` (stereo not drawn) [FDKP, 3,6-bis(N-fumaryl-4-aminobutyl)-2,5-diketopiperazine], the angle of repose [1] was 40 °, the solubility (Solubility of FDKP by pH; at neutral or basic pH) was “readily soluble” and the solubility (Solubility of FDKP by pH; in acid) was “low solubility”. For the same molecule, the VMGD ([2]; DPI 2, 56% trans) was 6.800 micron, the VMGD ([2]; MEDTONE, 56% trans) was 21.200 micron and the “Ave. VMGD” value ([3]; DPI 2, fill 10 mg, single discharge) was 6.84 μm. The “Ave. VMGD” value ([3]; MEDTONE (MTDS), fill 10 mg FDKP, two discharges) was 21.21 μm, the “better delivery of FDKP into the systemic circulation than MEDTONE” value ([4]; DPI 1 vs MEDTONE) was “about 30%” and the “AVG mean AUC fdkp per emitted fdkp mass” value ([4]; Part 1, DPI 1, 10 mg, nominal time and inhalation effort) was 3495 ng*min/mL*mg fdkp. The “AVG mean AUC fdkp per emitted fdkp mass” value ([4]; Part 1, MT (MEDTONE), 10 mg, nominal time and inhalation effort) was 1934 ng*min/mL*mg fdkp, the “AVG mean AUC fdkp per emitted fdkp mass” value ([4]; Part 2, DPI 1, 10 mg, long inhalation time) was 3289 ng*min/mL*mg fdkp and the “AVG mean AUC fdkp per emitted fdkp mass” value ([4]; Part 2, DPI 1, 10 mg, short inhalation time) was 3310 ng*min/mL*mg fdkp. The X16 avg ([5]; Sample 1, O-series) was 1.9 µm, the X50 avg ([5]; Sample 1, O-series) was 6.86 μm and the X84 avg ([5]; Sample 1, O-series) was 21.55. The X16 avg ([5]; Sample 2, U-series) was 2.76 µm, the X50 avg ([5]; Sample 2, U-series) was 11.19 μm and the X84 avg ([5]; Sample 2, U-series) was 36.51. The “% of the FDKP delivered into the systemic circulation” value ([6]; DPI 2, single inhalation, 6.7 mg total fill FDKP-insulin (FDKP about 6 mg)) was 64% and the “% of the FDKP delivered into the systemic circulation” value ([6]; MEDTONE, two inhalations, FDKP-insulin formulation) was 46%.

For insulin, the “post prandial glucose excursions” value [7] was “generally comparable glucose excursions”.
